Data from the NIST ThermoML archive (doi:10.1016/j.tca.2014.07.018).
Values joined by “and” are separate entries in the source; they are usually repeats but may differ in a detail not shown here. Equal entries are not always repeated. Numbers after ± are expanded uncertainties.

Conditions: Crystal; for molar entropy / mass density: 101.33 kPa; for molar entropy: Small (less than 1 g) adiabatic calorimetry; for vapor or sublimation pressure: Calculated from knudsen effusion weight loss

C1C2CC3CC1CC(c1nnn[nH]1)(C2)C3 [5-(1-adamantyl)tetrazole]
Conditions | Normal melting temperature [°C] | molar entropy [J/K/mol] | vapor or sublimation pressure
5 K | – | 0.1627 ± 0.027 | –
10 K | – | 1.359 ± 0.056 | –
15 K | – | 4.002 ± 0.12 | –
20 K | – | 7.655 ± 0.17 | –
25 K | – | 11.89 ± 0.21 | –
30 K | – | 16.44 ± 0.25 | –
35 K | – | 21.13 ± 0.29 | –
40 K | – | 25.84 ± 0.33 | –
45 K | – | 30.53 ± 0.37 | –
50 K | – | 35.17 ± 0.41 | –
60 K | – | 44.22 ± 0.47 | –
70 K | – | 52.95 ± 0.55 | –
80 K | – | 61.41 ± 0.61 | –
90 K | – | 69.64 ± 0.71 | –
100 K | – | 77.69 ± 0.77 | –
120 K | – | 93.37 ± 0.88 | –
140 K | – | 108.7 ± 1 | –
160 K | – | 123.8 ± 1.1 | –
180 K | – | 138.9 ± 1.2 | –
200 K | – | 154 ± 1.4 | –
220 K | – | 169.4 ± 1.4 | –
240 K | – | 185 ± 1.6 | –
260 K | – | 200.8 ± 1.7 | –
280 K | – | 216.8 ± 1.8 | –
298.15 K | – | 231.5 ± 1.9 | –
300 K | – | 232.9 ± 1.9 | –
320 K | – | 249 ± 2 | –
340 K | – | 265 ± 2.1 | –
360 K | – | 281 ± 2.3 | –
370 K | – | 289 ± 2.3 | –
393.68 K | – | – | 5.34e-05 ± 3.3e-06 kPa
398.71 K | – | – | 8.43e-05 ± 5.2e-06 kPa and 8.47e-05 ± 5.3e-06 kPa
403.71 K | – | – | 0.0001344 ± 8.3e-06 kPa
403.72 K | – | – | 0.0001377 ± 8.5e-06 kPa
403.74 K | – | – | 0.0001377 ± 8.5e-06 kPa
408.72 K | – | – | 0.0002136 ± 1.3e-05 kPa and 0.0002121 ± 1.3e-05 kPa
408.74 K | – | – | 0.0002167 ± 1.3e-05 kPa
413.74 K | – | – | 0.0003204 ± 2e-05 kPa
413.75 K | – | – | 0.0003212 ± 2e-05 kPa
413.76 K | – | – | 0.0003363 ± 2.1e-05 kPa
418.74 K | – | – | 0.0005125 ± 3.2e-05 kPa
418.77 K | – | – | 0.0005047 ± 3.1e-05 kPa
418.8 K | – | – | 0.000516 ± 3.2e-05 kPa
visual observation | 251.00 ± 2 | – | –

Conditions | mass density [kg/m3]
100 K, X-ray diffraction | 1308 ± 6
292.15 K, Pycnometric method | 1470 ± 180
